From patent US9322066B2, “Predictors for cancer treatment” (priority 2011, dated 2016)

Test system: relapsed or refractory, rituximab-naive or -sensitive follicular B-cell NHL
Assay: Duration of response, Vc-R vs rituximab study, by biomarker
Type: in vivo, human
From the text: Non-Hodgkin lymphoma (NHL) encompasses several unique malignant lymphoid disease entities that vary in clinical behavior, morphologic appearance, immunologic, and molecular phenotype. […] A randomized, open-label, active-controlled, multicenter, multinational, prospective study to compare the efficacy and safety of the combination of bortezomib and rituximab (Vc-R) to single-agent rituximab in subjects who have relapsed or refractory, rituximab-naive or -sensitive follicular B-cell NHL was performed.
Subjects were centrally randomized to Treatment Groups A (Vc-R) or B (rituximab) in a 1:1 ratio taking into account the following stratification factors: • Follicular Lymphoma International Prognostic Index (FLIPI) score (low [0 or 1 factor], intermediate [2 factors], high [≧3 factors]); • Prior rituximab therapy (yes, no); • Time since last dose of anti-lymphoma therapy (≦1 year, >1 year); • Region (United States/Canada, European Union, Rest of World).
The following clinical endpoints were included in the analysis within each treatment group and an overall comparison was made with the biomarker-related endpoints: Progression-free survival, defined as the interval between the date of randomization and the date of progressive disease (PD) or death, whichever is first reported in the ITT population; overall survival; overall response rate (complete response [CR]+CR unconfirmed [CRu]+partial response [PR]); overall CR rate (CR+CRu); duration of response; time to next anti-lymphoma therapy; and treatment free interval.
Comparison of the response rates between the treatment groups was conducted using the Fishers Exact Test. Duration of response, time to response, and time to clinical relapse were analyzed descriptively, where appropriate, and the biomarker subset was compared (if appropriate, determined as per the initial analysis) to the overall clinical cohort, by treatment group and overall. An exploratory estimate of the response rates in each treatment group was presented with 2-sided 95% confidence intervals. The number and percentage of subjects falling into each response category was descriptively tabulated.

[1] = 20S % NUCLEAR STAINING: 30-50, Prior Rituximab Therapy
[2] = 20S INTENSITY CYTOPLASMIC SIGNAL: ≦2+, Intermediate FLIPI Score
[3] = 20S INTENSITY CYTOPLASMIC SIGNAL: ≧3+, Intermediate FLIPI Score
[4] = 20S INTENSITY CYTOPLASMIC SIGNAL: ≧3+, No Prior Rituximab Therapy
[5] = 20S INTENSITY CYTOPLASMIC SIGNAL: ≧3+, ≦65 years old
[6] = BCL2/ A43G: MND, Ann Arbor Stage IV
[7] = BCL2/ E29K: MND, Ann Arbor Stage IV
[8] = BCL2/ P46L: MD, >1 year since last anti- lymphoma treatment
[9] = BCL2/ P59L: MD, 1 Prior Line of Therapy
[10] = BCL2/ P59L: MD, >1 year since last anti- lymphoma treatment
[11] = BCL2/ P59L: MD, Prior Rituximab Therapy
[12] = BCL2/ R106H: MND, Ann Arbor Stage IV
[13] = CD68 OVERALL POSITIVE: 0-25, High FLIPI Score
[14] = CD68 OVERALL POSITIVE: 0-25, ≦1 year since last anti-lymphoma treatment
[15] = CD68 OVERALL POSITIVE: 51-75, Male
[16] = CD68 OVERALL POSITIVE: >75, Male
[17] = CD68 POSITIVE FOLLICULAR: 0-25, Female
[18] = CD68 POSITIVE PERIFOLLICULAR: >75, Male
[19] = NOTCH/ P2513L: MND, >65 years old
[20] = NOTCH/ X28INS: MND, Ann Arbor Stage IV
[21] = NOTCH/ X28INS: MND, ≦65 years old
[22] = P27 % NUCLEI POSITIVE: 60-70, High FLIPI Score
[23] = P27 % NUCLEI POSITIVE: 60-70, Male
[24] = P65 INTENSITY CYTOPLASMIC SIGNAL: ≦1+, Ann Arbor Stage III

Question: What does the source list for rituximab?
Answer: Duration of response Evt/N [1]: 9/13; Duration of response Median [1]: 356; Duration of response Evt/N [2]: 9/25; Duration of response Median [2]: 554; Duration of response Evt/N [3]: 17/25; Duration of response Median [3]: 352; Duration of response Evt/N [4]: 22/32; Duration of response Median [4]: 427; Duration of response Evt/N [5]: 28/39; Duration of response Median [5]: 417; Duration of response Evt/N [6]: 23/28; Duration of response Median [6]: 353; Duration of response Evt/N [7]: 21/26; Duration of response Median [7]: 344; Duration of response Evt/N (BCL2/ E29K: MND, ≦65 years old): 32/49; Duration of response Median (BCL2/ E29K: MND, ≦65 years old): 353; Duration of response Evt/N [8]: 5/5; Duration of response Median [8]: 356; Duration of response Evt/N [9]: 2/2; Duration of response Median [9]: 345; Duration of response Evt/N [10]: 3/4; Duration of response Median [10]: 330; Duration of response Evt/N (BCL2/ P59L: MD, No Subgroup): 4/5; Duration of response Median (BCL2/ P59L: MD, No Subgroup): 343; Duration of response Evt/N [11]: 3/3; Duration of response Median [11]: 330; Duration of response Evt/N (BCL2/ P59L: MD, White): 4/5; Duration of response Median (BCL2/ P59L: MD, White): 343; Duration of response Evt/N [12]: 21/26; Duration of response Median [12]: 352; Duration of response Evt/N [13]: 7/11; Duration of response Median [13]: 423; Duration of response Evt/N [14]: 5/7; Duration of response Median [14]: 354; Duration of response Evt/N [15]: 5/7; Duration of response Median [15]: 279; Duration of response Evt/N [16]: 3/3; Duration of response Median [16]: 284; Duration of response Evt/N [17]: 12/20; Duration of response Median [17]: 354; Duration of response Evt/N [18]: 3/3; Duration of response Median [18]: 284; Duration of response Evt/N [19]: 10/23; Duration of response Median [19]: 948; Duration of response Evt/N [20]: 26/31; Duration of response Median [20]: 353; Duration of response Evt/N [21]: 44/64; Duration of response Median [21]: 369; Duration of response Evt/N [22]: 7/9; Duration of response Median [22]: 337; Duration of response Evt/N [23]: 5/6; Duration of response Median [23]: 281; Duration of response Evt/N [24]: 2/4; Duration of response Median [24]: 173; Duration of response Evt/N (PSMB5/R24C: C/C, Ann Arbor Stage II): 4/18; Duration of response Evt/N (PSMB9/R60H: A/G, Male): 10/11; Duration of response Median (PSMB9/R60H: A/G, Male): 211
